Experiment: Sensory evaluation of fizziness enhancement in carbonated water (WILKINSON TANSAN), specialized panelists
Assay type: in vivo
Conditions: for Fizziness enhancement evaluation result: average score of seven panelists
Description: In the following Examples, the action and effect were verified using a value obtained by calculating an average score of scores for imparting or enhancing fizziness by sensory evaluation conducted by specialized panelists. The expression “1 point” in the evaluation is the evaluation in the case where no component is added at all (no addition).
Diethyl sebacate (manufactured by Inoue Perfumery Mfg. Co., Ltd., the same applies to the following Examples) was separately added to “WILKINSON (registered trademark) TANSAN (manufactured by Asahi Soft Drinks Co., Ltd.)” so as to reach the concentrations shown in Table 2 below, and sensory evaluation was performed by seven specialized panelists to determine the extent to which fizziness was enhanced as compared with a control in which diethyl sebacate was not added.
Diisobutyl adipate (manufactured by Inoue Perfumery Mfg. Co., Ltd., the same applies to the following Examples) was separately added to “WILKINSON (registered trademark) TANSAN (manufactured by Asahi Soft Drinks Co., Ltd.)” so as to reach the concentrations shown in Table 3 below, and sensory evaluation was performed by seven specialized panelists to determine the extent to which fizziness was enhanced as compared with a control in which diisobutyl adipate was not added.
Dimethyl sebacate (manufactured by Tokyo Chemical Industry Co., Ltd.) was separately added to “WILKINSON (registered trademark) TANSAN (manufactured by Asahi Soft Drinks Co., Ltd.)” so as to reach the concentrations shown in Table 4 below, and sensory evaluation was performed by seven specialized panelists to determine the extent to which fizziness was enhanced as compared with a control in which dimethyl sebacate was not added.
Dipropyl adipate (manufactured by Tokyo Chemical Industry Co., Ltd.) was separately added to “WILKINSON (registered trademark) TANSAN (manufactured by Asahi Soft Drinks Co., Ltd.)” so as to reach the concentrations shown in Table 5 below, and sensory evaluation was performed by seven specialized panelists to determine the extent to which fizziness was enhanced as compared with a control in which dipropyl adipate was not added.

SMILES	amelioration of mouthfeel (in words)	fizziness enhancement (in words)	Fizziness enhancement evaluation result (0.005 ppm, 1 (not enhanced) to 5 (extremely enhanced)) [points]	Fizziness enhancement evaluation result (0.01 ppm, 1 to 5) [points]	Fizziness enhancement evaluation result (0.1 ppm, 1 to 5) [points]	Fizziness enhancement evaluation result (0.5 ppm, 1 to 5) [points]	Fizziness enhancement evaluation result (1 ppm, 1 to 5) [points]	Fizziness enhancement evaluation result (5 ppm, 1 to 5) [points]	Fizziness enhancement evaluation result (10 ppm, 1 to 5) [points]	Fizziness enhancement evaluation result (20 ppm, 1 to 5) [points]	Fizziness enhancement evaluation result (50 ppm, 1 to 5) [points]	Fizziness enhancement evaluation result (100 ppm, 1 to 5) [points]
CC(C)COC(=O)CCCCC(=O)OCC(C)C [Diisobutyl adipate, diisobutyl adipate]	effect of ameliorating the mouthfeel was also confirmed	fizziness of carbonated water can be enhanced	1.1	1.6	3.4	3.6	3.4	1.7	1.3	–	–	–
COC(=O)CCCCCCCCC(=O)OC [Dimethyl sebacate, dimethyl sebacate]	effect of ameliorating the mouthfeel was also confirmed	fizziness of carbonated water can be enhanced	–	–	1.1	1.6	2.0	2.4	3.1	2.6	1.4	1.3
CCCOC(=O)CCCCC(=O)OCCC [Dipropyl adipate, dipropyl adipate]	effect of ameliorating the mouthfeel was also confirmed	fizziness of carbonated water can be enhanced	–	–	1.1	1.4	1.9	2.6	3.0	1.7	1.4	1.1
